Assay [1] in a line: FITC-PI(4,5)P2 binding to plate-bound peptide with calcium (x9A). The protocol:
Immodulator peptides IM1, IM3 and IM5 (400 ng/well) in PBS were bound to streptavidin-coated 96-well plates at room temperature for 60 minutes, in the presence or absence of 500 uM calcium chloride. Each well also received 200 ng cold PPI plus 10 ng FITC-labeled PI(4,5)P2 or PI(4)P1. The tables below show the relative fluorescence (with/without calcium background) expressed as a percentage of the highest binder, FITC-PI(4,5)P2+cold PI(3,5)P2, which was 2,496 fluorescence units. Background binding without calcium was, in all cases, 200-300 fluorescence units.

Assay [2] in a line: Competition binding assay to metal-charged NTA-coated plates (x2B b). The note with it: PBS on calcium = 100. The protocol: NTA-metal-affinity fluorescence assay was performed using 96-well NTA-metal-coated plates readily available from commercial sources such as Qiagen (Germantown, MD). NTA was charged with ferrous or ferric iron, zinc, copper, calcium, vanadium, ruthenium, cobalt, titanium, manganese or other metals. 400 ng of FITC-labeled immodulator peptide (or biotinylated immodulator peptide complexed to Alexa-488-labeled streptavidin) in PBS buffer was added per plate. After incubation at room temperature for 60 minutes, excess peptide was washed off and peptide was detected by measuring fluorescence (excitation 490 nm, emmission 525 nm) in a fluorometer. • (a) Using FITC-labeled IM3 peptide (1 ug/well) in the fluorescent binding assay: • EDTA-treated control: 2,251±1,186 • Ferrous iron: 170,441±11,264 (p<0.001)* • Copper: 13,644±5566 (p<0.05)* • Calcium: 48,822±11,990 (p<0.01)* • *p values are relative to EDTA-treated control • (b) Competition binding assay to ferrous iron, calcium, copper and zinc-charged NTA-coated plates using FITC-labeled IM3 peptide (0.5 uM) and 8× (4 uM) unlabelled competitor peptides IM3N1, IM3N2 (*all comparisons to PBS control are p<0.01); # fluorescent value of binding to […] was set at 100.

The target in assay [3] is T1, DNA-binding domain (DBD) of RXR-alpha (Homo sapiens, UniProt P19793).
T1 construct: purchased Abcam, Cambridge, MA
T1 sequence (P19793 111-228): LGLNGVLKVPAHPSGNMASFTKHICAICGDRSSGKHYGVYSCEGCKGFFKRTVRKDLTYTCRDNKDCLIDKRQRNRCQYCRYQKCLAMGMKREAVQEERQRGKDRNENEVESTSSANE
Put plainly: Binding to RXRa-DBD with or without ferric iron (x3B). On the procedure: Experiment x3B. Binding of immodulator peptides to DNA-binding domain (DBD) of RXR-alpha, with or without ferric iron. 100 ng/well recombinant RXRa-DBD (Abcam, Cambridge, MA) was adsorbed to wells of a 96-well plate for 60 minutes at RT, then blocked with 200 uL 1% BSA in PBS buffer overnight. Plate was washed and 800 ng/well Streptavidin-Alexa 488 conjugate (SA488)-labelled IM peptide was added, with or without ferric chloride (5 uM) or 5-fold excess RXRa-DBD. The plate was incubated for 2 hours at room temperature, washed and counted in a standard fluorometer (excitation/emission 485/525 nm).

A short description of assay [4]: FITC-PI(4,5)P2 binding at pH5.2 with metals and cold PPI (x9D). The protocol: To a streptavidin-coated 96-well plate, 400 ng peptide IM3 or IM5 were bound per well. Each well received 100 uL of sodium acetate buffer pH5.2 containing 500 uM EDTA, Calcium Chloride, Zinc Chloride or Ferric Chloride. Each well additionally contained 50 ng FITC-PI(4,5)P2 plus 2 ug of either cold PI(3,4)P2, PI(4,5)P2, PI(3,5)P2 or buffer. All assays were done in sextuplicate. After incubation at room temperature for 60 mins, wells were washed and counted in a fluorometer set at FITC excitation/emmission wavelengths.

The target in a further assay is T2, full-length huNur77 (Homo sapiens, UniProt P22736).
T2 construct: purchased Abcam, Cambridge, MA
T2 sequence (P22736 whole entry): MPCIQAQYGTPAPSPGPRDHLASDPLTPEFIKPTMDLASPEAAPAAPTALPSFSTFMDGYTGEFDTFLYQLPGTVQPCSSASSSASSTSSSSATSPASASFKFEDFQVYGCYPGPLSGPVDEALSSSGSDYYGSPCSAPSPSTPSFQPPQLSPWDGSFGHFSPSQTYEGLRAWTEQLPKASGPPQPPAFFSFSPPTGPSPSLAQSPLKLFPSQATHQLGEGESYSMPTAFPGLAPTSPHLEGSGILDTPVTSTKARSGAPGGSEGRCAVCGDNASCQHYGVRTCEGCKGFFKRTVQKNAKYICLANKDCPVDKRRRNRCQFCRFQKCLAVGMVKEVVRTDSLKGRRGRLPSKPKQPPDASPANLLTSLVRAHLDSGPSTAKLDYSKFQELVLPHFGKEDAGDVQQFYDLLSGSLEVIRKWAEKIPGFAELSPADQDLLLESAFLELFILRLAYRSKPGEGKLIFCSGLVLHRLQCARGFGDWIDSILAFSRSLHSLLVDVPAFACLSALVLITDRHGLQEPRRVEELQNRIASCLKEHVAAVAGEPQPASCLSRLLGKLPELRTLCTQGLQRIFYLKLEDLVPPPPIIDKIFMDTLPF
Put plainly: Binding to full-length huNur77 (x3C). To be noted: 333 ng/well labelled peptide. On the procedure: 400 ng/well recombinant Nur77 (Abcam, Cambridge, MA) was adsorbed to wells of a 96-well plate for 90 minutes at RT, then blocked with 200 uL 1% BSA in PBS buffer overnight. Plate was washed and 333 ng/well Streptavidin-Alexa 488 conjugate (SA488)-labelled IM3, IM4 or no peptide was added. The plate was incubated for 60 min at room temperature, washed and counted in a standard fluorometer (excitation/emission 485/525 nm). Background (buffer alone) was subtracted.

[5] abbreviates: cold PPI: None, 500 uM calcium chloride.

Marks after values point to notes of the source that are not given here. Peptide text beside a SMILES is read from it.

As for `CSCC[C@H](NC(=O)[C@H](CO)NC(=O)[C@@H](NC(=O)[C@H](CCC(=O)O)NC(=O)[C@H](CS)NC(=O)[C@H](CCC(N)=O)NC(=O)[C@H](CCCNC(=N)N)NC(=O)[C@H](CO)NC(=O)[C@H](Cc1c[nH]cn1)NC(=O)[C@H](Cc1ccc(O)cc1)NC(=O)[C@H](Cc1ccccc1)NC(=O)CNC(=O)[C@H](CC(N)=O)NC(=O)[C@@H](N)CCCCN)[C@@H](C)O)C(=O)N[C@@H](CC(=O)O)C(=O)NCC(=O)N[C@@H](CCC(=O)O)C(=O)N[C@@H](C)C(=O)NCC(=O)N[C@@H](CC(C)C)C(=O)N[C@@H](CS)C(=O)N[C@@H](Cc1c[nH]c2ccccc12)C(=O)O` [IM1] (H-KNGFYHSRQCETSMDGEAGLCW-OH; N-terminus and C-terminus assumed), the “relative fluorescence, FITC-PI(4,5)P2 bound” value in assay [1] (cold PPI: 3,4,5-P3, calcium) is reported as 0.1 percentage of the highest binder; in assay [1] (cold PPI: 3,4-P2, calcium) it was 1.1 percentage of the highest binder; in assay [1] (cold PPI: 3,5-P2, calcium), 4.3 percentage of the highest binder; in assay [1] (cold PPI: 3-P1, calcium), 3.1 percentage of the highest binder; in assay [1] (cold PPI: 4,5-P2, calcium), 0.8 percentage of the highest binder; in assay [1] (cold PPI: 4-P1, calcium) it was 1.3 percentage of the highest binder. The “relative fluorescence, FITC-PI(4,5)P2 bound” value in assay [1] (cold PPI: 5-P1, calcium) was 0.5 percentage of the highest binder; in assay [1] (setting [5]) it was 1.6 percentage of the highest binder.
On to “RGVTEDYLRLETLVQKVVSKGFYKKKQCRPSKGRKRGFCW [IM3N1]”, for which the “FITC-IM3 fluorescence with competitor” value in assay [2] (Calcium, 0.5 uM FITC-IM3, 8x (4 uM) unlabelled competitor) is 14.6 ± 1.4*; in assay [2] (Copper, 8x (4 uM) unlabelled competitor), 9.2 ± 1.5*; in assay [2] (Ferrous iron, 8x (4 uM) unlabelled competitor), 20.4 ± 1.0*; in assay [2] (Zinc, 8x (4 uM) unlabelled competitor), 15.7 ± 1.3*.
For `CC[C@H](C)[C@H](NC(=O)CNC(=O)[C@H](CCCNC(=N)N)NC(=O)[C@H](CCCCN)NC(=O)[C@H](CCCNC(=N)N)NC(=O)CNC(=O)[C@H](CCCNC(=N)N)NC(=O)[C@H](CO)NC(=O)[C@@H]1CCCN1C(=O)[C@H](CCCCN)NC(=O)[C@H](CS)NC(=O)[C@H](CCC(N)=O)NC(=O)[C@H](CCCCN)NC(=O)[C@H](CCCNC(=N)N)NC(=O)[C@H](CCCCN)NC(=O)[C@H](Cc1ccc(O)cc1)NC(=O)[C@H](Cc1ccccc1)NC(=O)CNC(=O)[C@H](CCCCN)NC(=O)[C@@H](N)CCCNC(=N)N)C(=O)N[C@@H](CS)C(=O)N[C@@H](Cc1c[nH]c2ccccc12)C(=O)O` [IM5] (H-RKGFYKRKQCKPSRGRKRGICW-OH; N-terminus and C-terminus assumed), the fluorescence was 228.0 ± 44.9 in assay [3] (100 ng/well RXRa-DBD, no FeCl3, no excess RXRa-DBD); 303.0 ± 68.3 in assay [3] (FeCl3 5 uM, 5X excess RXRa-DBD); 552.7 ± 86.8^ in assay [3] (FeCl3 5 uM, no excess RXRa-DBD). Further, the “relative fluorescence, FITC-PI(4,5)P2 bound” value in assay [1] (cold PPI: 3,4,5-P3, calcium) was 0.2 percentage of the highest binder; in assay [1] (cold PPI: 3,4-P2, calcium) it was 12.3 percentage of the highest binder; in assay [1] (cold PPI: 3,5-P2, calcium), 16.9 percentage of the highest binder; in assay [1] (cold PPI: 3-P1, calcium), 0.3 percentage of the highest binder; in assay [1] (cold PPI: 4,5-P2, calcium), 7.6 percentage of the highest binder; in assay [1] (cold PPI: 4-P1, calcium), 2.3 percentage of the highest binder. In addition, the “relative fluorescence, FITC-PI(4,5)P2 bound” value in assay [1] (cold PPI: 5-P1, calcium) was 2.7 percentage of the highest binder; in assay [1] (setting [5]), 2.6 percentage of the highest binder. For the same compound, the “fluorescence, FITC-PI(4,5)P2 bound” value is listed as 234 ± 34 in assay [4] (Buffer, Calcium); 88 ± 23 in assay [4] (Buffer, EDTA); 1,111 ± 167 in assay [4] (Buffer, Ferric Iron); 236 ± 55 in assay [4] (Buffer, Zinc); 205 ± 50 in assay [4] (Cold PI(3,4)P2, Calcium); 150 ± 81 in assay [4] (Cold PI(3,4)P2, EDTA). For the same compound, the “fluorescence, FITC-PI(4,5)P2 bound” value is recorded as 2,150 ± 420 in assay [4] (Cold PI(3,4)P2, Ferric Iron); 151 ± 51 in assay [4] (Cold PI(3,4)P2, Zinc); 489 ± 146 in assay [4] (Cold PI(3,5)P2, Calcium); 205 ± 71 in assay [4] (Cold PI(3,5)P2, EDTA); 2,026 ± 176 in assay [4] (Cold PI(3,5)P2, Ferric Iron); 353 ± 29 in assay [4] (Cold PI(3,5)P2, Zinc). The “fluorescence, FITC-PI(4,5)P2 bound” value is 163 ± 80 in assay [4] (Cold PI(4,5)P2, Calcium); 81 ± 95 in assay [4] (Cold PI(4,5)P2, EDTA); 1,447 ± 304 in assay [4] (Cold PI(4,5)P2, Ferric Iron); 104 ± 21 in assay [4] (Cold PI(4,5)P2, Zinc).
For `CC(C)C[C@H](NC(=O)[C@H](C)NC(=O)[C@@H]1CCCN1C(=O)[C@H](Cc1c[nH]cn1)NC(=O)[C@H](CS)NC(=O)[C@H](CCC(N)=O)NC(=O)[C@H](CCCCN)NC(=O)[C@@H]1CCCN1C(=O)[C@H](Cc1c[nH]cn1)NC(=O)[C@H](Cc1ccccc1)NC(=O)[C@H](CC(N)=O)NC(=O)CNC(=O)[C@H](CC(N)=O)NC(=O)[C@@H](N)CCCNC(=N)N)C(=O)N[C@@H](CC(=O)O)C(=O)NCC(=O)N[C@@H](CCC(N)=O)C(=O)N[C@@H](CCCNC(=N)N)C(=O)NCC(=O)N[C@@H](CCCCN)C(=O)N[C@@H](CS)C(=O)N[C@@H](Cc1c[nH]c2ccccc12)C(=O)O` [IM4] (H-RNGNFHPKQCHPALDGQRGKCW-OH; N-terminus and C-terminus assumed), the values for the fluorescence at full-length huNur77 (Nur77 400 ng/well) and at full-length huNur77 (no Nur77 adsorbed) were 70 ± 48 and 112 ± 24, respectively.

These data come from patent US12102685B2, “Immodulator peptides covalently modified with small molecules” (priority 2020, dated 2024).
